# Results as given in article PMC11200585, “Prospects for Prostate Cancer Chemotherapy: Cytotoxic Evaluation and Mechanistic Insights of Quinolinequinones with ADME/PK Profile” (Biomedicines, 2024).
# Columns and labels:
# Assay type in all cases: cell-based, human
# [1] = tested on: SK-MEL-28; assay: NCI-60 one-dose screen (melanoma); conditions: 10 µM single dose, 48 h
# Method: (§1) The obtained quinolinequinones were submitted to NCI, Bethesda, USA, and, as per standard protocol of NCI, all compounds were evaluated for their antiproliferative activity at single-dose assay (10 µM concentration in DMSO) on a panel of 60 cancer cell lines derived from leukemia, non-small-cell lung, colon, CNS, melanoma, ovarian, renal, prostate, and breast, as per protocol. Tested compounds were added to the microtiter culture plates followed by incubation for 48 h at 37 °C. Sulforhodamine B (SRB), a protein-binding dye, is used for endpoint determination. The percent of the growth of the treated cells was determined in comparison to the untreated control cells and the results of each tested compound were reported. Data from one-dose experiments pertain to the percentage growth at 10 μM [16, 17, 18].
# [2] = tested on: LOX IMVI; assay: NCI-60 one-dose screen (melanoma); conditions: 10 µM single dose, 48 h
# Method: as §1
# [3] = tested on: MALME-3M; assay: NCI-60 one-dose screen (melanoma); conditions: 10 µM single dose, 48 h
# Method: as §1
# [4] = tested on: SK-MEL-5; assay: NCI-60 one-dose screen (melanoma); conditions: 10 µM single dose, 48 h
# Method: as §1
# [5] = tested on: UACC-257; assay: NCI-60 one-dose screen (melanoma); conditions: 10 µM single dose, 48 h
# Method: as §1
# [6] = tested on: UACC-62; assay: NCI-60 one-dose screen (melanoma); conditions: 10 µM single dose, 48 h
# Method: as §1
# [7] = tested on: SK-MEL-2; assay: NCI-60 one-dose screen (melanoma); conditions: 10 µM single dose, 48 h
# Method: as §1
# [8] = tested on: MDA-MB-435; assay: NCI-60 one-dose screen (melanoma); conditions: 10 µM single dose, 48 h
# Method: as §1
# [9] = tested on: HOP-92; assay: NCI-60 one-dose screen (non-small cell lung cancer); conditions: 10 µM single dose, 48 h
# Method: as §1
# [10] = tested on: HOP-62; assay: as above; conditions: 10 µM single dose, 48 h
# Method: as §1
# [11] = tested on: NCI-H522; assay: as above; conditions: 10 µM single dose, 48 h
# Method: as §1
# [12] = tested on: EKVX; assay: as above; conditions: 10 µM single dose, 48 h
# Method: as §1
# [13] = tested on: NCI-H322M; assay: as above; conditions: 10 µM single dose, 48 h
# Method: as §1
# [14] = tested on: A549/ATCC; assay: as above; conditions: 10 µM single dose, 48 h
# Method: as §1
# [15] = tested on: NCI-H23; assay: as above; conditions: 10 µM single dose, 48 h
# Method: as §1
# [16] = tested on: NCI-H460; assay: as above; conditions: 10 µM single dose, 48 h
# Method: as §1
# [17] = tested on: NCI-H226; assay: as above; conditions: 10 µM single dose, 48 h
# Method: as §1
# [18] = tested on: SNB-19; assay: NCI-60 one-dose screen (CNS cancer); conditions: 10 µM single dose, 48 h
# Method: as §1
# [19] = tested on: SNB-75; assay: NCI-60 one-dose screen (CNS cancer); conditions: 10 µM single dose, 48 h
# Method: as §1
# [20] = tested on: SF-295; assay: NCI-60 one-dose screen (CNS cancer); conditions: 10 µM single dose, 48 h
# Method: as §1
# [21] = tested on: SF-268; assay: NCI-60 one-dose screen (CNS cancer); conditions: 10 µM single dose, 48 h
# Method: as §1
# [22] = tested on: SF-539; assay: NCI-60 one-dose screen (CNS cancer); conditions: 10 µM single dose, 48 h
# Method: as §1
# [23] = tested on: U251; assay: NCI-60 one-dose screen (CNS cancer); conditions: 10 µM single dose, 48 h
# Method: as §1
# [24] = tested on: HCC-2998; assay: NCI-60 one-dose screen (colon cancer); conditions: 10 µM single dose, 48 h
# Method: as §1
# [25] = tested on: SW-620; assay: NCI-60 one-dose screen (colon cancer); conditions: 10 µM single dose, 48 h
# Method: as §1
# [26] = tested on: KM12; assay: NCI-60 one-dose screen (colon cancer); conditions: 10 µM single dose, 48 h
# Method: as §1
# [27] = tested on: COLO 205; assay: NCI-60 one-dose screen (colon cancer); conditions: 10 µM single dose, 48 h
# Method: as §1
# [28] = tested on: HT29; assay: NCI-60 one-dose screen (colon cancer); conditions: 10 µM single dose, 48 h
# Method: as §1
# [29] = tested on: HCT-15; assay: NCI-60 one-dose screen (colon cancer); conditions: 10 µM single dose, 48 h
# Method: as §1
# [30] = tested on: HCT-116; assay: NCI-60 one-dose screen (colon cancer); conditions: 10 µM single dose, 48 h
# Method: as §1
# [31] = tested on: BT-549; assay: NCI-60 one-dose screen (breast cancer); conditions: 10 µM single dose, 48 h
# Method: as §1
# [32] = tested on: T-47D; assay: NCI-60 one-dose screen (breast cancer); conditions: 10 µM single dose
# Method: as §1
# [33] = tested on: MDA-MB-231/ATCC; assay: NCI-60 one-dose screen (breast cancer); conditions: 10 µM single dose, 48 h
# Method: as §1
# [34] = tested on: HS 578T; assay: NCI-60 one-dose screen (breast cancer); conditions: 10 µM single dose, 48 h
# Method: as §1
# [35] = tested on: MCF7; assay: NCI-60 one-dose screen (breast cancer); conditions: 10 µM single dose, 48 h
# Method: as §1
# [36] = tested on: MDA-MB-468; assay: NCI-60 one-dose screen (breast cancer); conditions: 10 µM single dose, 48 h
# Method: as §1
# [37] = tested on: PC-3; assay: NCI-60 one-dose screen (prostate cancer); conditions: 10 µM single dose, 48 h
# Method: as §1
# [38] = tested on: DU-145; assay: NCI-60 one-dose screen (prostate cancer); conditions: 10 µM single dose, 48 h
# Method: as §1
# [39] = tested on: OVCAR-8; assay: NCI-60 one-dose screen (ovarian cancer); conditions: 10 µM single dose, 48 h
# Method: as §1
# [40] = tested on: IGROV1; assay: NCI-60 one-dose screen (ovarian cancer)
# Method: as §1
# [41] = tested on: OVCAR-4; assay: NCI-60 one-dose screen (ovarian cancer); conditions: 10 µM single dose, 48 h
# Method: as §1
# [42] = tested on: OVCAR-5; assay: NCI-60 one-dose screen (ovarian cancer); conditions: 10 µM single dose, 48 h
# Method: as §1
# [43] = tested on: NCI/ADR-RES; assay: NCI-60 one-dose screen (ovarian cancer); conditions: 10 µM single dose, 48 h
# Method: as §1
# [44] = tested on: SK-OV-3; assay: NCI-60 one-dose screen (ovarian cancer); conditions: 10 µM single dose, 48 h
# Method: as §1
# [45] = tested on: OVCAR-3; assay: NCI-60 one-dose screen (ovarian cancer); conditions: 10 µM single dose
# Method: as §1
# [46] = tested on: HL-60(TB); assay: NCI-60 one-dose screen (leukemia); conditions: 10 µM single dose
# Method: as §1
# [47] = tested on: MOLT-4; assay: NCI-60 one-dose screen (leukemia); conditions: 10 µM single dose, 48 h
# Method: as §1
# [48] = tested on: RPMI-8226; assay: NCI-60 one-dose screen (leukemia); conditions: 10 µM single dose, 48 h
# Method: as §1
# [49] = tested on: K-562; assay: NCI-60 one-dose screen (leukemia)
# Method: as §1
# [50] = tested on: SR; assay: NCI-60 one-dose screen (leukemia); conditions: 10 µM single dose
# Method: as §1
# [51] = tested on: CCRF-CEM; assay: NCI-60 one-dose screen (leukemia); conditions: 10 µM single dose
# Method: as §1
# [52] = tested on: TK-10; assay: NCI-60 one-dose screen (renal cancer); conditions: 10 µM single dose, 48 h
# Method: as §1
# [53] = tested on: ACHN; assay: NCI-60 one-dose screen (renal cancer); conditions: 10 µM single dose, 48 h
# Method: as §1
# [54] = tested on: UO-31; assay: NCI-60 one-dose screen (renal cancer); conditions: 10 µM single dose, 48 h
# Method: as §1
# [55] = tested on: 786-0; assay: NCI-60 one-dose screen (renal cancer); conditions: 10 µM single dose, 48 h
# Method: as §1
# [56] = tested on: A498; assay: NCI-60 one-dose screen (renal cancer); conditions: 10 µM single dose, 48 h
# Method: as §1
# [57] = tested on: SN12C; assay: NCI-60 one-dose screen (renal cancer); conditions: 10 µM single dose, 48 h
# Method: as §1
smiles,measurement,setting,value
COc1ccc(NC2=C(Cl)C(=O)c3nc(C)ccc3C2=O)cc1OC [AQQ4],GP (growth percentage),[1],101.65%
same,GP (growth percentage),[2],−3.09%
same,GP (growth percentage),[3],94.54%
same,GP (growth percentage),[4],86.57%
same,GP (growth percentage),[5],91.03%
same,GP (growth percentage),[6],71.83%
same,GP (growth percentage),[7],100.13%
same,GP (growth percentage),[8],−67.16%
same,GP (growth percentage),[9],112.07%
same,GP (growth percentage),[10],110.03%
same,GP (growth percentage),[11],78.84%
same,GP (growth percentage),[12],50.81%
same,GP (growth percentage),[13],99.05%
same,GP (growth percentage),[14],107.06%
same,GP (growth percentage),[15],59.03%
same,GP (growth percentage),[16],100.46%
same,GP (growth percentage),[17],97.11%
same,GP (growth percentage),[18],94.62%
same,GP (growth percentage),[19],110.92%
same,GP (growth percentage),[20],103.62%
same,GP (growth percentage),[21],84.69%
same,GP (growth percentage),[22],103.46%
same,GP (growth percentage),[23],105.80%
same,GP (growth percentage),[24],103.69%
same,GP (growth percentage),[25],72.23%
same,GP (growth percentage),[26],98.23%
same,GP (growth percentage),[27],107.70%
same,GP (growth percentage),[28],109.56%
same,GP (growth percentage),[29],82.29%
same,GP (growth percentage),[30],55.84%
same,GP (growth percentage),[31],126.22%
same,GP (growth percentage),[32]; 48 h,14.93%
same,inhibition at 10 µM,"[32]; Homo sapiens, T47D",85.1%
same,GP (growth percentage),[33],72.96%
same,GP (growth percentage),[34],118.57%
same,GP (growth percentage),[35],59.00%
same,GP (growth percentage),[36],58.11%
same,GP (growth percentage),[37],70.56%
same,GP (growth percentage),[38],93.00%
same,GP (growth percentage),[39],92.63%
same,GP (growth percentage),"[40]; 10 µM single dose, 48 h",19.63%
same,inhibition at 10 µM,"[40]; Homo sapiens, IGROV-1, 10 µM single dose",80.4%
same,GP (growth percentage),[41],71.38%
same,GP (growth percentage),[42],104.66%
same,GP (growth percentage),[43],94.66%
same,GP (growth percentage),[44],91.82%
same,GP (growth percentage),[45]; 48 h,13.16%
same,inhibition at 10 µM,[45]; Homo sapiens,86.8%
same,GP (growth percentage),[46]; 48 h,9.95%
same,inhibition at 10 µM,[46]; Homo sapiens,90%
same,GP (growth percentage),[47],69.83%
same,GP (growth percentage),[48],47.33%
same,GP (growth percentage),"[49]; 10 µM single dose, 48 h",7.18%
same,inhibition at 10 µM,"[49]; Homo sapiens, K562, 10 µM single dose",92.8%
same,GP (growth percentage),[50]; 48 h,0.92%
same,inhibition at 10 µM,[50]; Homo sapiens,99.1%
same,GP (growth percentage),[51]; 48 h,15.29%
same,inhibition at 10 µM,[51]; Homo sapiens,84.7%
same,GP (growth percentage),[52],148.82%
same,GP (growth percentage),[53],95.00%
same,GP (growth percentage),[54],100.30%
same,GP (growth percentage),[55],98.99%
same,GP (growth percentage),[56],82.55%
same,GP (growth percentage),[57],90.46%
